Legend:
CDK12/CycK complex = CDK12/CycK complex (Homo sapiens, UniProt Q9NYV4); assay: Measurement of CDK12 inhibitory activity by binding assay (TR-FRET, 66 nM BODIPY-FL-labeled AT-7519); details: inhibitory rate against CDK12 at 1 μM test compound, 66 nM BODIPY-FL-labeled AT-7519, 2 nM CDK12/CycK
How it was run: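 His-tagged CDK12/CycK (2 nM) premixed with 66 nM BODIPY-FL-AT-7519 tracer, 0.2 nM Tb-streptavidin and 0.4 nM biotin-anti-His, then incubated with compound 120 min at room temperature. Tracer displacement read as BODIPY-FL/Tb TR-FRET ratio; percent inhibition normalized to no-compound control and 3 μM AT-7519 blank.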

CDK12/CycK enzyme = CDK12/CycK enzyme (Homo sapiens, UniProt Q9NYV4); assay: Measurement of CDK12/CycK inhibitory activity (ULight-4E-BP1 peptide phosphorylation, LANCE); assay type: biochemical; details: inhibitory rate against CDK12/CycK at 1 μM test compound, ATP 10 μM or 500 μM
Description: Experimental Example 2: Measurement of CDK12/CycK Inhibitory Activity
A test compound dissolved in DMSO was added to a reaction solution (50 mM HEPES (pH 7.5), 10 mM MgCl2, 1 mM DTT, 0.01% Tween 20, 0.01% BSA) containing CDK12/CycK enzyme and ULight-labeled eIF4E-binding protein 1 (4E-BP1) (Thr37/Thr46) peptide (PerkinElmer), and the mixture was reacted at room temperature for 60 min. […] was added to give an ATP solution with a final concentration of 10 μM or 500 μM to start the enzyme reaction, and the mixture was reacted at room temperature for 60 min. A LANCE Detection buffer (PerkinElmer) containing europium-labeled anti-phosphorylation 4E-BP1 (Thr37/Thr46) antibody (PerkinElmer) and EDTA (final concentration 10 mM) was added to discontinue the reaction. After standing for 60 min, time decomposition fluorescence value (excitation 320 nm, emission 615 nm, 665 nm) was measured by Envision (PerkinElmer). The inhibitory rate (%) of the test compound against CDK12/CyclinK was calculated by the following formula. Inhibitory rate (%)=(1−(count of test compound−blank)÷(control−blank))×100
The count of the CDK12 enzyme reaction mixture under compound non-addition conditions is indicated as control, and the count under compound non-addition and CDK12/CycK enzyme non-addition conditions is indicated as blank.
The results measured by the above-mentioned method (inhibitory rate (%) of the signal value at 1 μM test compound relative to control is shown below.

[1] = system: A2780 intracellular CTD pSer2; assay: CTD pSer2 measurement using human ovarian cancer cell A2780 and In-Cell Western method; assay type: cell-based; details: inhibitory rate against A2780 intracellular CTD pSer2 at 1 μM test compound, 4 hr
Description: Experimental Example 3: CTD pSer2 Measurement Using Human Ovarian Cancer Cell A2780 and In-Cell Western Method
A2780 cells (ATCC) were seeded in a 96 well plate at 1.8×10^4 cells/well, and the cells were cultured overnight in a cell culture medium RPMI1640 (FUJIFILM Wako Pure Chemical Corporation) containing 10% FBS (fetal bovine serum) and 1% penicillin/streptomycin. A test compound dissolved in a cell medium was added, and the mixture was stood for 4 hr in a CO2 incubator (37° C.). The cells were fixed with ALTFiX (Falma) for 30 min, and washed 3 times with a washing buffer (20 mM Tris-HCl (pH 7.5), 500 mM NaCl, 0.1% Tween20). 0.1% Triton-X-100 diluted with PBS(−) was added and the mixture was incubated at room temperature for 15 min. Thereafter, a blocking buffer (LI-COR) was added, and the mixture was incubated at room temperature for 1 hr. An anti-CTD pS2 antibody (Abcam) suspended in an antibody diluent (blocking buffer: PBS(−)-diluted 0.1% Tween20=1:1) was added, and the mixture was incubated at room temperature for 1 hr. The mixture was […] with a washing buffer, IRDye800CW-labeled anti-goat antibody (LI-COR) was added, and the mixture was incubated at room temperature for 1 hr. The mixture was washed 3 times with a washing buffer, and the fluorescence wavelength at 800 nm was measured by Aerius (LI-COR).
The inhibitory rate (%) of the test compound against A2780 intracellular CTD pSer2 was calculated by the following formula. Inhibitory rate (%)=(1−(count of test compound−blank)÷(control−blank))×100
The count of the A2780 cell under compound non-addition conditions is indicated as control, and the count under compound non-addition and primary antibody non-addition conditions is indicated as blank.
The results measured by the above-mentioned method (inhibitory rate of the signal value at 1 μM test compound relative to control) are shown below.

A2780 cells = assay: In vitro proliferation suppression test (CellTiter-Glo); assay type: cell-based, human; details: Homo sapiens, 72 h, A2780 cell proliferation inhibitory rate at 1 μM test compound, three days
Description: Experimental Example 4: In Vitro Proliferation Suppression Test
The proliferation suppressive activity of compound in A2780 cells was evaluated by the following method.
A2780 cells were seeded in a 384-well white plate at a cell density of 1,000 cells/40 μL/well or a 96-well white plate at a cell density of 1,000 cells/90 μL/well using an assay medium (RPMI1640 medium containing 10% fetal bovine serum (FUJIFILM Wako Pure Chemical Corporation)) and incubated at 37° C. in 5% CO2.
The next day, a test compound dissolved in dimethyl sulfoxide (DMSO) was diluted with an assay medium, the obtained compound solution was added by 40 μL/well or 10 μL/well to each well of the plate containing A2780 cells and the mixture was incubated (test compound addition group). In addition, a similar reaction was performed without adding the test compound (test compound non-addition group).
Three days later, 80 μL or 100 μL of CellTiter-Glo reagent (Promega) was added, and the mixture was stirred for 10 min. Thereafter, the luminescence of each well was measured by ARVO-MX multilabel counter (Perkin Elmer Inc.).
The proliferation inhibitory rate (%) of each test compound against A2780 cells was calculated by the following calculation formula. Proliferation inhibitory rate (%)=(1−luminescence of test compound addition group÷luminescence of test compound non-addition group)×100
The A2780 cell proliferation inhibitory rate (%) of 1 μM test compound is shown below.

Chain of CDK12/CycK enzyme (Q9NYV4 whole entry, species assumed): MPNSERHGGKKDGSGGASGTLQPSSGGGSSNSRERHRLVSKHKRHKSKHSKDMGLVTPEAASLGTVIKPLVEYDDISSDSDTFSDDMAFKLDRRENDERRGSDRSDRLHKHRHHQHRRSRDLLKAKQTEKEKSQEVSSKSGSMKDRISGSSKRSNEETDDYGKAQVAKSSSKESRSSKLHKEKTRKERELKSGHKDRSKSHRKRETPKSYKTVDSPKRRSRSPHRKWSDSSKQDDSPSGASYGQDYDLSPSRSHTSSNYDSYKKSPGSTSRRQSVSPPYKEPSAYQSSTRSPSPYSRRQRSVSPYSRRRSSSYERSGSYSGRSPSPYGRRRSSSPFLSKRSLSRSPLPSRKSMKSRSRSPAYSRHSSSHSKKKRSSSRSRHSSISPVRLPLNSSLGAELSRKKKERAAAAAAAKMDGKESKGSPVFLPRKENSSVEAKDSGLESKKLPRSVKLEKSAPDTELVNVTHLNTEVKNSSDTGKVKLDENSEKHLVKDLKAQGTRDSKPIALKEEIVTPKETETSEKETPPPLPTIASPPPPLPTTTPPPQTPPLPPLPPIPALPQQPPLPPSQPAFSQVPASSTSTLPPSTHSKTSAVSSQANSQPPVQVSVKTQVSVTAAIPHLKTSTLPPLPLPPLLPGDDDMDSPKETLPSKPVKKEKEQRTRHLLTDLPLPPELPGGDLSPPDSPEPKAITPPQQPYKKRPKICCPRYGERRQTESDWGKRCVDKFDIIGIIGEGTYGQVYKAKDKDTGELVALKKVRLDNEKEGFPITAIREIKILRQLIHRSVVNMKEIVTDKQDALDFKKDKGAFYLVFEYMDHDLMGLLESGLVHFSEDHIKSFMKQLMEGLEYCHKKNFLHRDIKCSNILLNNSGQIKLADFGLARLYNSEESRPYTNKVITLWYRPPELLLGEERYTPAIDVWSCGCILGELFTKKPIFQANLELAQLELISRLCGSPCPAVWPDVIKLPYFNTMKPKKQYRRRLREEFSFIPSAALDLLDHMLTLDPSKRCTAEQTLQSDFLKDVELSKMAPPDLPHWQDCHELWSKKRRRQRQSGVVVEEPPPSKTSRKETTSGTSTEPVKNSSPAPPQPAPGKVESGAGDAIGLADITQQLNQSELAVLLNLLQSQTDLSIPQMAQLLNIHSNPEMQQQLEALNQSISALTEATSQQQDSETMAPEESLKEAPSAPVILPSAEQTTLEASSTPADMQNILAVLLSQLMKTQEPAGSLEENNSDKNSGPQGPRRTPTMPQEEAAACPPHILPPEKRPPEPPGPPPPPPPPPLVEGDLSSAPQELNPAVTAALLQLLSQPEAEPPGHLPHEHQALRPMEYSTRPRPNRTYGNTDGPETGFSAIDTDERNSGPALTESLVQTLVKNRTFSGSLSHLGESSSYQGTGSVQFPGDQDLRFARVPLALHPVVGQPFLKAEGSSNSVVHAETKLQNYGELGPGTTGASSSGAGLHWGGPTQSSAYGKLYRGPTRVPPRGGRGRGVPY
Chain of CDK12/CycK enzyme (O75909 whole entry partner, species assumed): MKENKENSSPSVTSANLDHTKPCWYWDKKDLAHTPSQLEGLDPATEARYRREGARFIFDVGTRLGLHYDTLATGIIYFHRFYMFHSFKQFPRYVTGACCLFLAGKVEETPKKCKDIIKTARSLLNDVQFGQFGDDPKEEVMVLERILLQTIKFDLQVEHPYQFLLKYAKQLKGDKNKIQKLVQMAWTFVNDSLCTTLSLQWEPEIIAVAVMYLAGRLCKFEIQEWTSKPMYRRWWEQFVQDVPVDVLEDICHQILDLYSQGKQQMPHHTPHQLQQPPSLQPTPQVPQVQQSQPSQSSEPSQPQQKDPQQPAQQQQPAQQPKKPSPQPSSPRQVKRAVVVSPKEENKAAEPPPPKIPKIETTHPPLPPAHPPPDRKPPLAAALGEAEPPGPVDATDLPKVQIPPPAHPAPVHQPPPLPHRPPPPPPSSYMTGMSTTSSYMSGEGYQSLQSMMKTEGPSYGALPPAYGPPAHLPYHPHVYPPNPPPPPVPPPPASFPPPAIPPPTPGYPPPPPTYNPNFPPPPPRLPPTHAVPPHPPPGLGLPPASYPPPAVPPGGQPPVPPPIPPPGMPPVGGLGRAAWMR
Chain of CDK12/CycK complex (Q9NYV4 whole entry, species assumed): as the sequence (Q9NYV4 whole entry, species assumed) above
Chain of CDK12/CycK complex (O75909 whole entry partner, species assumed): as the sequence (O75909 whole entry partner, species assumed) above

| Compound | inhibition at 1 µM (CDK12/CycK complex) [%] | inhibition at 1 µM (CDK12/CycK enzyme) [%] | inhibition at 1 µM [1] [%] | inhibition at 1 µM (A2780 cells) [%] |
| --- | --- | --- | --- | --- |
| Cn1ccc(-c2ccc(N(C(=O)NCc3ccccc3)[C@H]3CC[C@H](Nc4ncc(C#N)c(NC5COC5)n4)CC3)cc2)cc1=O [Example 530, 3-benzyl-1-(trans-4-((5-cyano-4-(oxetan-3-ylamino)pyrimidin-2-yl)amino)cyclohexyl)-1-(4-(1-methyl-2-oxo-1,2-dihydropyridin-4-yl)phenyl) urea] | 100 | 104 | 64 | 97 |
| Cn1cc(-c2ccc(N(C(=O)NCc3ccccc3)[C@H]3CC[C@H](Nc4ncc(C#N)c(-c5[nH]ncc5Cl)n4)CC3)nc2)cn1 [Example 536, 3-benzyl-1-(trans-4-((4-(4-chloro-1H-pyrazol-5-yl)-5-cyanopyrimidin-2-yl)amino)cyclohexyl)-1-(5-(1-methyl-1H-pyrazol-4-yl)pyridin-2-yl)urea] | 96 | 95 | 82 | 91 |
| Cn1cc(-c2ccc(N(C(=O)NCc3ccccc3)[C@H]3CC[C@H](Nc4ncc(C(F)(F)F)c(N5CCC6(COC6)C5)n4)CC3)nc2)cn1 [Example 566, 3-benzyl-1-(5-(1-methyl-1H-pyrazol-4-yl)pyridin-2-yl)-1-(trans-4-((4-(2-oxa-6-azaspiro[3.4]octa-6-yl)-5-(trifluoromethyl)pyrimidin-2-yl)amino)cyclohexyl)urea] | 102 | 100 | 72 | 98 |
| COc1ncc(-c2ccc(N(C(=O)NCc3ccccc3)[C@H]3CC[C@H](Nc4ncc(C#N)c(-c5cn[nH]c5C)n4)CC3)nc2)cn1 [Example 577, 3-benzyl-1-(trans-4-((5-cyano-4-(5-methyl-1H-pyrazol-4-yl)pyrimidin-2-yl)amino)cyclohexyl)-1-(5-(2-methoxypyrimidin-5-yl)pyridin-2-yl)urea] | 88 | 98 | 87 | 94 |
| COc1ncc(-c2ccc(N(C(=O)OCc3ccccc3)[C@H]3CC[C@H](Nc4ncc(C#N)c(NC5COC5)n4)CC3)nc2)cn1 [Example 581, benzyl (trans-4-((5-cyano-4-(oxetan-3-ylamino)pyrimidin-2-yl)amino)cyclohexyl) (5-(2-methoxypyrimidin-5-yl)pyridin-2-yl)carbamate] | 88 | 102 | 70 | 99 |
| COc1ncc(-c2ccc(N(C(=O)NCc3ccccc3F)[C@H]3CC[C@H](Nc4ncc(C#N)c(NC5COC5)n4)CC3)nc2)cn1 [Example 582, 1-(trans-4-((5-cyano-4-(oxetan-3-ylamino)pyrimidin-2-yl)amino)cyclohexyl)-3-(2-fluorobenzyl)-1-(5-(2-methoxypyrimidin-5-yl)pyridin-2-yl)urea] | 91 | 110 | 72 | 97 |
| COc1ncc(-c2ccc(N(C(=O)NCc3ccccc3)[C@H]3CC[C@H](Nc4ncc(C(F)(F)F)c(OC5COC5)n4)CC3)nc2)cn1 [Example 588, 3-benzyl-1-(5-(2-methoxypyrimidin-5-yl)pyridin-2-yl)-1-(trans-4-((4-(oxetan-3-yloxy)-5-(trifluoromethyl)pyrimidin-2-yl)amino)cyclohexyl)urea] | 99 | 100 | 75 | 98 |

Second part, led by results:

| inhibition at 1 µM (CDK12/CycK complex) [%] | inhibition at 1 µM (CDK12/CycK enzyme) [%] | Compound | inhibition at 1 µM [1] [%] | inhibition at 1 µM (A2780 cells) [%] |
| --- | --- | --- | --- | --- |
| 102 | 103 | Cn1cc(-c2ccc(N(C(=O)NCc3ccccc3)[C@H]3CC[C@H](Nc4ncc(C#N)c(OC5COC5)n4)CC3)nc2)cn1 [Example 485, 3-benzyl-1-(trans-4-((5-cyano-4-(oxetan-3-yloxy)pyrimidin-2-yl)amino)cyclohexyl)-1-(5-(1-methyl-1H-pyrazol-4-yl)pyridin-2-yl)urea] | 63 | 97 |
| 102 | 99 | Cn1cc(-c2ccc(N(C(=O)NCc3ccccc3)[C@H]3CC[C@H](Nc4ncc(C#N)c(NC5COC5)n4)CC3)cc2)cn1 [Example 527, 3-benzyl-1-(trans-4-((5-cyano-4-(oxetan-3-ylamino)pyrimidin-2-yl)amino)cyclohexyl)-1-(4-(1-methyl-1H-pyrazol-4-yl)phenyl)urea] | 70 | 97 |
| 99 | 109 | Cn1cc(-c2cnc(N(C(=O)NCc3ccccc3)[C@H]3CC[C@H](Nc4ncc(C#N)c(NC5COC5)n4)CC3)cn2)cn1 [Example 539, 3-benzyl-1-(trans-4-((5-cyano-4-(oxetan-3-ylamino)pyrimidin-2-yl)amino)cyclohexyl)-1-(5-(1-methyl-1H-pyrazol-4-yl)pyrazin-2-yl)urea] | 71 | 96 |
| 100 | 106 | COc1ncc(-c2ccc(N(C(=O)NCc3ccccc3)[C@H]3CC[C@H](Nc4ncc(C#N)c(NC5COC5)n4)CC3)nc2)cn1 [Example 553, 3-benzyl-1-(trans-4-((5-cyano-4-(oxetan-3-ylamino)pyrimidin-2-yl)amino)cyclohexyl)-1-(5-(2-methoxypyrimidin-5-yl)pyridin-2-yl)urea] | 74 | 98 |
| 103 | 99 | Cn1cc(-c2ccc(N(C(=O)NCc3ccccc3)[C@H]3CC[C@H](Nc4ncc(C(F)(F)F)c(NC5COC5)n4)CC3)nc2)cn1 [Example 574, 3-benzyl-1-(5-(1-methyl-1H-pyrazol-4-yl)pyridin-2-yl)-1-(trans-4-((4-(oxetan-3-ylamino)-5-(trifluoromethyl)pyrimidin-2-yl)amino)cyclohexyl)urea] | 83 | 97 |
| 101 | 97 | Cn1cc(-c2cnc(N(C(=O)NCc3ccccc3)[C@H]3CC[C@H](Nc4ncc(C#N)c(NC5COC5)n4)CC3)nc2)cn1 [Example 575, 3-benzyl-1-(trans-4-((5-cyano-4-(oxetan-3-ylamino)pyrimidin-2-yl)amino)cyclohexyl)-1-(5-(1-methyl-1H-pyrazol-4-yl)pyrimidin-2-yl)urea] | 63 | 99 |

— patent publication US11584737B2, “Heterocyclic compound” (TAKEDA PHARMACEUTICAL COMPANY LIMITED, priority 2018, dated 2023)
